Measurements taken from US20220354098A1, “Genetically Modified Non-Human Animals and Methods of Use Thereof” (YALE UNIVERSITY, priority 2019, published 2022).

How the values were obtained:
[1] = target: T1, scavenger receptor B1 (SR-B1) (Mus musculus, UniProt Q61009); assay: SR-B1 inhibitors in RGSKI mice: survival of transfused human RBCs in peripheral blood; format: in vivo; settings: 2 mg per mouse, one hour before human RBC infusion
T1 construct: endogenous in cells
T1 sequence (Q61009 1-509): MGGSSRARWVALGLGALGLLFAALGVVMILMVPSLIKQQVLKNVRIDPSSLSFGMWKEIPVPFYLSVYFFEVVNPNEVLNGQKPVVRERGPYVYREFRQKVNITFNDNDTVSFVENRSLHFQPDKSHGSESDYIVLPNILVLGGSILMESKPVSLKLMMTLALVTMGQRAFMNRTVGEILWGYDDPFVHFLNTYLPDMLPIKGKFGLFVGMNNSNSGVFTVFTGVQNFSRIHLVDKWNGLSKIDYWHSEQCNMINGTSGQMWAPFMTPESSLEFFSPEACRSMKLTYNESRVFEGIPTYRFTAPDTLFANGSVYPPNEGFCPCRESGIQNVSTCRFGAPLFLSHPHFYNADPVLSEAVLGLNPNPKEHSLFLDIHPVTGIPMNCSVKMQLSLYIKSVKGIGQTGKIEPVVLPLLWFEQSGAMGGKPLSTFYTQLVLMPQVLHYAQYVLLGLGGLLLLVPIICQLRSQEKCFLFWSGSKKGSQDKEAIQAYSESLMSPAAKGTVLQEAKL
Protocol: Inhibitor of scavenger receptor B1 can protect human RBCs in the mouse system. RGSKI mice were treated with scavenger receptor B1 named BLT-1 (2 mg per mouse). One hour after treatment, mice were infused with human RBCs and peripheral blood was collected at indicated time points. Control: PBS.
Inhibitor of scavenger receptor B1 can protect human RBCs in the mouse system. RGSKI mice were treated with scavenger receptor B1 named ITX7650 or ITX5061 (1 mg per mouse) obtained from iTherX. One hour after treatment, mice were infused with human RBCs and peripheral blood was collected at indicated time points. Control: PBS.

Fah-KO mouse hepatocytes = assay: NTBC rescue of Fah-KO mouse hepatocytes; format: in vivo; settings: NTBC in drinking water
Excerpt: MISTRGFah are viable, fertile, and can be bred as homozygotes when maintained on drinking water supplemented with 2-(2-nitro-4-trifluoromethylbenzoyl)-1,3-cyclohexanedione (NTBC), that blocks tyrosine metabolism upstream of FAH and prevents buildup of hepatotoxic metabolites. At 8 weeks of age, MISTRGFah. mice were implanted with commercially available, adult human hepatocytes (HuHep) via direct injection into the splenic vein, followed by gradual withdrawal of NTBC water. Regulated buildup of intracellular FA results in death of murine Fah^−/− hepatocytes and regeneration with HuHep with up to 90% repopulation by HuHep (Azuma H et al., 2007, Nature Biotechnology, 25:903-910). When plasma human albumin levels reached 2 mg/dL (FIG. 11A), indicative of significant (˜80%) HuHep repopulation, HuHepMISTRGFah mice were sublethally (80cGy) irradiated and each mouse was engrafted with […] fetal liver (FL) derived CD34+ cells. MISTRG (80cGy), MISTRGW41 and NSGW41 (no irrad) served as controls to assess the effects of human liver vs W41 mutation vs cytokine humanization on erythropoiesis and huRBC in circulation. 10 weeks post transplantation mice were analyzed for engraftment and. specifically erythroid maturation and PB huRBC.

C3 and C5 complement = settings: cited from earlier work

CCCCCCC1CCCC1=NNC(N)=S (centres unmarked) [BLT-1]
Protection of transfused human red blood cells in mouse periphery [1]: protected

O=C1CCCC(=O)C1C(=O)c1ccc(C(F)(F)F)cc1[N+](=O)[O-] [NTBC, 2-(2-nitro-4-trifluoromethylbenzoyl)-1,3-cyclohexanedione]
Rescue of Fah-KO mouse hepatocytes (Fah-KO mouse hepatocytes): rescues the Fah-KO mouse hepatocytes from death

cobra venom factor
Maximum human RBC chimerism (C3 and C5 complement; CVF with concurrent liposomal clodronate): ~3%
% of circulating huRBC (C3 and C5 complement; only in conjunction with liposomal clodronate in NOD/SCID mice): increased the % of circulating huRBC
huRBC survival (C3 and C5 complement; only when MΦs are depleted concurrently with liposomal clodronate): significantly prolonged
